Data from patent US20220204512A1, “SUBSTITUTED FUSED BICYCLIC DERIVATIVE, PREPARATION METHOD THEREFOR, AND APPLICATION THEREOF IN MEDICINES” (Jiangsu Hengrui Medicine Co., Ltd., priority 2019, published 2022).

Legend:
[1] = Pharmacokinetics assay in mice; assay type: in vivo; conditions: female, mouse, po, C57 mice, intragastric, 2 mg/kg, plasma; for Vd/F: read-out: Apparent distribution volume Vz/F; for AUC: read-out: Area under curve AUC; for CL/F: read-out: Clearance CLz/F; for half-life: read-out: Half-life T1/2 (converted); for Cmax: read-out: Plasma concentration Cmax; for MRT: read-out: Residence time MRT
Protocol: Mice were used as test animals. The drug concentration in plasma at different time points was determined by LC/MS/MS method after administration of the compounds 1-P2, 2-P2, 4-P2, 6-P2, 9-P2, 10-P2 and 11-P2. The pharmacokinetic behavior of the compounds of the present disclosure was studied and evaluated in mice.
Sixty-three C57 mice (female, equally divided into seven groups) were purchased from Shanghai Jiesijie Laboratory Animal Co., LTD. (Certificate No.: SCXK(Shanghai)2013-0006).
A certain amount of the test compound was weighed, dissolved in 5% of DMSO by volume and 5% of tween 80, followed by the additon of 90% of normal saline to prepare a 0.1 mg/mL colorless, clear and transparent solution.
After an overnight fast, C57 mice were intragastrically administered the test compound at an administration dose of 2 mg/kg and an administration volume of 0.2 ml/10 g.
The mice were intragastrically administered the test compounds. 0.1 ml of blood was taken before the administration and at 0.25, 0.5, 1.0, 2.0, 4.0, 6.0, 8.0, 11.0 and 24.0 hours after the administration. The samples were stored in heparinized tubes, and centrifuged for 10 minutes at 3500 rpm to separate the blood plasma. The plasma samples were stored at −20° C.
The content of the test compound in the plasma of mice after intragastrical administration of the test compound at different concentrations was determined: 25 μL of […] plasma at each time point after the administration was taken, followed by the addition of 50 μL of the internal standard camptothecin solution (100ng/mL) and 200 μL of acetonitrile. The resulting solution was vortex-mixed for 5 minutes, and centrifuged for 10 minutes (4000 rpm). 4 μL of the supernatant was taken from the plasma samples for LC/MS/MS analysis.

[2] = molecular target: T1, ERK1 (Homo sapiens, UniProt P27361); experiment: ERK1 enzyme activity test (ADP-Glo Kinase Assay); assay type: biochemical; conditions: ADP-Glo chemiluminescence
T1 construct: purchased R&D 1879-KS-010
T1 sequence (P27361 whole entry): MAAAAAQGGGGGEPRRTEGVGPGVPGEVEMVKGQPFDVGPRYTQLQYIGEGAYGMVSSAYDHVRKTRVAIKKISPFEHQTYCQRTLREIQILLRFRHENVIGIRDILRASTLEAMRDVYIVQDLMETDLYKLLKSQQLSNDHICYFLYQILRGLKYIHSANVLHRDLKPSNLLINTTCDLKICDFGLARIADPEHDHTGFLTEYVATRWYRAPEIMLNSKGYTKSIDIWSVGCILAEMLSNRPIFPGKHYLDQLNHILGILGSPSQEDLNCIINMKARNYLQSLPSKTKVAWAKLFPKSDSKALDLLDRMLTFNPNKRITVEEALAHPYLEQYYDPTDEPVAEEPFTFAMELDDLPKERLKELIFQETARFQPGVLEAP
Protocol: (§1) The purpose of this experiment is to detect the inhibitory ability of the compounds of the present disclosure on the ERK1 enzyme activity and to evaluate the in vitro activity of the compounds based on the IC50. The ADP-Glo™ Kinase Assay Kit was used in this experiment. The substrate was phosphorylated under the action of the enzyme and ADP was produced at the same time. The ADP-Glo reagent was added to remove the unreacted ATP in the reaction system, and the ADP produced by the reaction was detected with kinase detection reagent. In the presence of the compound, the inhibition rate of the compound was calculated by measuring the signal value.
Preparation of Enzyme and substrate: ERK1 (1879-KS-010, R&D) and substrate (AS-61777, anaspec) were prepared to 0.75 ng/p1 and 100 μM respectively in a buffer, and then the enzyme solution and the substrate solution were prepared into a mixed solution at a volume ratio of 2:1 for later use. ATP was diluted to 300 μM with buffer. The compound was dissolved in DMSO (dimethyl sulfoxide, Shanghai Titan Scientific Co., Ltd.) to prepare a stock solution with an initial concentration of 20 mM, and then Bravo was used to prepare the compound. Finally, 3 μL of a mixed solution of enzyme and substrate, and 1 μL of different concentrations of the compound (the initial concentration was 50 μM, 4-fold dilution) were added to each well of the 384-well plate, and the plate was incubated at 30° C. for 10 minutes, and finally 1 μL of 300 μM ATP solution was added to each well, and the plate was incubated at 30° C. for 2 hours. Then 5 μL of ADP-Glo was added, and the plate was incubated at 30° C. for 40 minutes. Then 10 μL of kinase detection buffer was added, and the plate was incubated at 30° C. for 40 minutes. The 384-well plate was taken out and placed in a microplate reader (BMG labtech, PHERAstar FS), and the chemiluminescence was measured by a microplate reader.
(§2) Microsoft Excel, Graphpad Prism 5 was used to process and analyze the data.

[3] = system: Colo205 cells; experiment: In vitro proliferation inhibition test on Colo205 tumor cells (CellTiter-Glo); assay type: cell-based; conditions: Homo sapiens, COLO 205, 72 h; Colo205 cell proliferation, 3 days of culture, CTG
Protocol: The purpose of this experiment is to test the inhibitory activity of the compounds of the present disclosure on the proliferation of Colo205 cells (CCL-222, ATCC) in vitro. The cells were treated in vitro with different concentrations of the compounds. After 3 days of culture, the cell proliferation was tested with CTG (CellTiter-Glo® Luminescent Cell Viability Assay, Promega, Catalog No. G7573) reagent, and the in vitro activity of the compounds was evaluated according to the ICso value.
In the following, the in vitro proliferation inhibition test method of Colo205 cells is taken as an example to illustrate the method for testing the in vitro proliferation inhibitory activity of the compounds of the present disclosure on tumor cells. This method is also applicable to, but not limited to, the in vitro proliferation inhibitory activity test on other tumor cells.
Colo205 cells were digested, centrifuged and then resuspended. The single cell suspension was mixed well, and the density of viable cells was adjusted to 5.0×10^4 cells/ml with cell culture medium (RPMI1640+2% FBS), and 95 μL/well was added to a 96-well cell culture plate. Only 100 μL medium was added to the peripheral wells of the 96-well plate. The culture plate was incubated in an incubator for 24 hours (37° C., 5% CO2).
The compound was dissolved in DMSO (dimethyl sulfoxide, Shanghai Titan Scientific Co., Ltd.) and prepared as a stock solution with an initial concentration of 20 mM. The initial concentration of the small molecule compound was 2 mM, and then 4-fold diluted into 9 points, and the 10th point was DMSO. Another 96-well plate was taken, and 90 μL of cell culture medium (RPMI1640+2% FBS) was added to each well. Then 10 μL of different concentrations of the test sample was added to each well. The mixture was mixed well, and then 5μL of different concentrations of the test sample was added to the cell culture plate. Each sample has two duplicate holes. The culture plate was incubated in the incubator for 3 days (37° C., 5% CO2). The 96-well cell culture plate was taken out. 50 μL solution of CTG was added to each well, and the plate was incubated for 10 minutes at room temperature. In a microplate reader (BMG labtech, PHERAstar FS), chemiluminescence was measured with the microplate reader.
as §2

[4] = molecular target: T2, ERK2 (Homo sapiens, UniProt P28482); experiment: ERK2 enzyme activity test (ADP-Glo Kinase Assay); assay type: biochemical; conditions: ADP-Glo chemiluminescence
T2 construct: purchased R&D 1879-KS-010
T2 sequence (P28482 2-360 limits assumed): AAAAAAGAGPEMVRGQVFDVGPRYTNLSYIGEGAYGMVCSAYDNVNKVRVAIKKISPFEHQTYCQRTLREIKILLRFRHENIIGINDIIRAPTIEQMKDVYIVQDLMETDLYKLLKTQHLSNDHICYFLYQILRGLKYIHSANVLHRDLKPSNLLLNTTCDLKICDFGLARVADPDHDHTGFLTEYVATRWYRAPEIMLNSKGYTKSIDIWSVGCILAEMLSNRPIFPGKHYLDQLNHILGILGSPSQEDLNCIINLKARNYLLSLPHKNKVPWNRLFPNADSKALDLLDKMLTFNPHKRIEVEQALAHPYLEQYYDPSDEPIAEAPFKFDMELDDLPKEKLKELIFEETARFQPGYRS
Protocol: as §1, with “the ERK2” for “the ERK1”, “enzyme activity,” for “enzyme activity”
Preparation of enzyme and substrate: ERK2 (1879-KS-010, R&D) and substrate (custom peptide, Gill Biochemical) were prepared to 0.75 ng/ml and 1500 μM in a buffer (40 mM Tris, 20 mM MgCl2, 0.1 mg/ml BSA, 50 μM DTT), and then the enzyme solution and the substrate solution were prepared into a mixed solution at a volume ratio of 2:1 for later use. ATP was diluted to 500 μM with buffer. The compound was dissolved in DMSO (dimethyl sulfoxide, Shanghai Titan Scientific Co., Ltd.) to prepare a stock solution with an initial concentration of 20 mM, and then Bravo was used to prepare the compound. Finally, 3 μL of a mixed solution of enzyme and substrate, and 1 μL substrate of different concentrations of the compound (the initial concentration is 50 μM, 4-fold dilution) were added to each well of the 384-well plate, and the plate was incubated at 30° C. for 10 minutes, and finally 1 μL 500 μM ATP solution was added to each well, and the plate was incubated at 30° C. for 2 hours. Then 5 μL of ADP-Glo was added, and the plate was incubated at 30° C. for 40 minutes. Then 10 μL of kinase detection buffer was added, and the plate was incubated at 30° C. for 40 minutes. The 384-well plate was taken out and placed in a microplate reader (BMG labtech, PHERAstar FS), and the chemiluminescence was measured by a microplate reader.
as §2

Vd/F [1] [L/kg]	AUC [1] [ng·h/mL]	CL/F [1] [mL/min/kg]	half-life [1] [min]	Cmax [1] [ng/mL]	MRT [1] [h]	IC50 [2] [nM]	IC50 [3] [nM]	IC50 [4] [nM]	Compound
3.29	936	35.5	64.2	905	1.07	3.8	10	1	COc1cc(F)cc([C@@H](CO)NC(=O)[C@@H](C)N2CCn3cc(-c4nc(NC5CCOCC5)ncc4Cl)cc3C2=O)c1 [Example 4-P2, (R)-2-(7-(5-Chloro-2-((tetrahydro-2H-pyran-4-yl)amino)pyrimidin-4-yl)-1-oxo-3,4-dihydropyrrolo[1,2-a]pyrazin-2(1H)-yl)-N-((S)-1-(3-fluoro-5-methoxyphenyl)-2-hydroxyethyl)propanamide]
3.14	1330	25.1	86.4	1410	0.838	9	17.7	1.9	Cc1cccc([C@@H](CO)NC(=O)[C@@H](C)N2CCn3cc(-c4nc(NC5CCOCC5)ncc4Cl)cc3C2=O)c1 [Example 9-P2, (R)-2-(7-(5-Chloro-2-((tetrahydro-2H-pyran-4-yl)amino)pyrimidin-4-yl)-1-oxo-3,4-dihydropyrrolo[1,2-a]pyrazin-2(1H)-yl)-N-((S)-2-hydroxy-1-(m-tolyl)ethyl)propanamide]
3.51	784	42.4	57.4	813	1.15	17	26	2.1	Cc1cccc([C@@H](CO)NC(=O)[C@@H](C)N2CCc3cc(-c4nc(NC5CCOCC5)ncc4Cl)cn3C2=O)c1 [Example 11-P2, (R)-2-(6-(5-Chloro-2-((tetrahydro-2H-pyran-4-yl)amino)pyrimidin-4-yl)-1-oxo-3,4-dihydropyrrolo[1,2-c]pyrimidin-2(1H)-yl)-N-((S)-2-hydroxy-1-(m-tolyl)ethyl)propanamide]
5.94	994	33.5	123	867	1.08	4.6	15	1.7	COc1cc(F)cc([C@@H](CO)NC(=O)[C@@H](C)N2CCc3cc(-c4nc(NC5CCOCC5)ncc4Cl)cn3C2=O)c1 [Example 2-P2, (R)-2-(6-(5-Chloro-2-((tetrahydro-2H-pyran-4-yl)amino)pyrimidin-4-yl)-1-oxo-3,4-dihydropyrrolo[1,2-c]pyrimidin-2(1H)-yl)-N-((S)-1-(3-fluoro-5-methoxyphenyl)-2-hydroxyethyl)propanamide]
